Experimental data as given in US9452986B2, “6-heteroaryloxy- or 6-aryloxy-quinoline-2-carboxamides and method of use” (AbbVie Inc., priority 2014, dated 2016).

Biological target: recombinant human Nav1.7 (Homo sapiens (Human), UniProt Q15858)
Experiment: FRET-based membrane potential assay, recombinant human sodium channel Nav1.7
Format: cell-based
Details: HEK293 cells stably expressing recombinant human Nav1.7; veratridine + scorpion venom depolarization; read-out: FRET-Membrane Potential Nav1.7 IC50
Method in brief: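 Channel activation used veratridine at its EC80, set by a dilution curve each experiment, together with Leiurus scorpion venom, added 3 min after compound. Membrane-potential ratio signals from FLIPR Tetra in HEPES-buffered HBSS were fitted to a four-parameter Hill equation for percent inhibition and IC50.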

Sequence of recombinant human Nav1.7 (Q15858 whole entry): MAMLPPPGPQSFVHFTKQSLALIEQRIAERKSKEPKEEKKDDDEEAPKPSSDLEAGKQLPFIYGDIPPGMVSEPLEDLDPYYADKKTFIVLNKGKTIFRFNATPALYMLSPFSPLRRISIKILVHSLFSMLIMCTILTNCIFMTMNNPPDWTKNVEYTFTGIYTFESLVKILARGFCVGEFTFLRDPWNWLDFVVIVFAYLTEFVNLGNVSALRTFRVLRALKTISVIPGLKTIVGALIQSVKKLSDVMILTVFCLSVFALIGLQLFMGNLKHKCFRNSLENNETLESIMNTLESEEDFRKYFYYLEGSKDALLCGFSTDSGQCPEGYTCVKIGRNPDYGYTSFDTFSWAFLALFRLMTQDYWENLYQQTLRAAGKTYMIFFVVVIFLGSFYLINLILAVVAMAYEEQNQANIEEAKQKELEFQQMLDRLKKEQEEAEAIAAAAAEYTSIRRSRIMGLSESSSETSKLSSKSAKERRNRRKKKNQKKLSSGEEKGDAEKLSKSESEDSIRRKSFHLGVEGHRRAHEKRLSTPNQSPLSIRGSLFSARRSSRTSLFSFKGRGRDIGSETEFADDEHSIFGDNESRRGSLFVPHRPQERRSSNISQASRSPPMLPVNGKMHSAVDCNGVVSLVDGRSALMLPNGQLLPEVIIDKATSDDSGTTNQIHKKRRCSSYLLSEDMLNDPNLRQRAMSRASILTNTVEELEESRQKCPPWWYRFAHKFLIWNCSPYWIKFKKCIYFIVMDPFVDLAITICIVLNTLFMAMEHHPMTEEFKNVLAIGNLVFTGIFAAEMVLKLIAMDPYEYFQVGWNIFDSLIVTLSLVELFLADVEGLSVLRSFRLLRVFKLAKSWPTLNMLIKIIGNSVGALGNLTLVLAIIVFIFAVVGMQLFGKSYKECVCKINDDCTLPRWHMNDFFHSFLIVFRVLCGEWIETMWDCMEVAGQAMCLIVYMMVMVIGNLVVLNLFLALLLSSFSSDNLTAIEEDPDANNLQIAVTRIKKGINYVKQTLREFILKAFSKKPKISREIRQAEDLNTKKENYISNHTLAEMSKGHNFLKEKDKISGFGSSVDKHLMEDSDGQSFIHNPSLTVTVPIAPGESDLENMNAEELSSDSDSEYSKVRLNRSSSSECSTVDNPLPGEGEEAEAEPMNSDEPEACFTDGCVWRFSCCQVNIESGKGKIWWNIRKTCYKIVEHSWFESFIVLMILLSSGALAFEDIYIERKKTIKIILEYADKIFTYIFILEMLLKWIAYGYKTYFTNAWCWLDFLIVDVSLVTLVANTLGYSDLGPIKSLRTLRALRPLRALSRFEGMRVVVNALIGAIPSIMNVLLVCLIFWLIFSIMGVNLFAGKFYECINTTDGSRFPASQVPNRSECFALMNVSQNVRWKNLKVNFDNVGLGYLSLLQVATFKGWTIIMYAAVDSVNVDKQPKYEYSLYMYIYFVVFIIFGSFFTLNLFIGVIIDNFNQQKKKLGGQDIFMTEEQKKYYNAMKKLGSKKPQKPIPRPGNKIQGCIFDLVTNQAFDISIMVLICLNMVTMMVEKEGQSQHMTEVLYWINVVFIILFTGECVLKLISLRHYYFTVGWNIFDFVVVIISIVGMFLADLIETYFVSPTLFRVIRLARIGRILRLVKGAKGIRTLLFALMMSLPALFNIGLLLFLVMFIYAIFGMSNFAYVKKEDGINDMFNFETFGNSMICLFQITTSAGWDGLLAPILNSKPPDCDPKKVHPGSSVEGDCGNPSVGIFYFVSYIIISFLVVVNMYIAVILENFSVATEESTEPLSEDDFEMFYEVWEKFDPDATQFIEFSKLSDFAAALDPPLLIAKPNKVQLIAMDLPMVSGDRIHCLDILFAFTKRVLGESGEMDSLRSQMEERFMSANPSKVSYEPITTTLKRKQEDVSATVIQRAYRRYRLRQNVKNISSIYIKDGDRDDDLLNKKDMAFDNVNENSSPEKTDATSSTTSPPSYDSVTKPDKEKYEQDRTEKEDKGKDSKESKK

Compound | IC50
O=C(c1ccc2cc(Oc3ccc(S(=O)(=O)C(F)(F)F)cc3)ccc2n1)N1CCNCC1 [Example 215, piperazin-1-yl(6-{4-[(trifluoromethyl)sulfonyl]phenoxy}quinolin-2-yl)methanone] | 810 nM
O=C(NC1CNC1)c1ccc2cc(Oc3ccc(C(F)(F)F)cn3)ccc2n1 [Example 216, N-(azetidin-3-yl)-6-{[5-(trifluoromethyl)pyridin-2-yl]oxy}quinoline-2-carboxamide] | 1670 nM
O=C(c1ccc2cc(Oc3ccc(C(F)(F)F)cn3)ccc2n1)N1CC(c2cccnc2)C1 [Example 217, [3-(pyridin-3-yl)azetidin-1-yl](6-{[5-(trifluoromethyl)pyridin-2-yl]oxy}quinolin-2-yl)methanone] | 1040 nM
CC(=O)N1CCN(C(=O)c2ccc3cc(Oc4ccc(C(F)(F)F)cn4)ccc3n2)CC1 [Example 218, 1-{4-[(6-{[5-(trifluoromethyl)pyridin-2-yl]oxy}quinolin-2-yl)carbonyl]piperazin-1-yl}ethanone] | > 20000 nM
O=C(c1ccc2cc(Oc3ccc(C(F)(F)F)cn3)ccc2n1)N1CC=CC1 [Example 220, 2,5-dihydro-1H-pyrrol-1-yl(6-{[5-(trifluoromethyl)pyridin-2-yl]oxy}quinolin-2-yl)methanone] | 2000 nM
O=C(c1ccc2cc(Oc3ccc(C(F)(F)F)cn3)ccc2n1)N1CCc2ccncc2C1 [Example 222, 3,4-dihydro-2,7-naphthyridin-2(1H)-yl(6-{[5-(trifluoromethyl)pyridin-2-yl]oxy}quinolin-2-yl)methanone] | 2150 nM
O=C(c1ccc2cc(Oc3ccc(C(F)(F)F)cn3)ccc2n1)N1C[C@@H](O)C[C@@H]1c1cc(F)ccc1F [Example 223, [(2R,4S)-2-(2,5-difluorophenyl)-4-hydroxypyrrolidin-1-yl](6-{[5-(trifluoromethyl)pyridin-2-yl]oxy}quinolin-2-yl)methanone] | 2790 nM
O=C(c1ccc2cc(Oc3ccc(C(F)(F)F)cn3)ccc2n1)N1CC[C@H](NS(=O)(=O)c2ccc(C(F)(F)F)cc2)[C@H]1c1ccccc1 [Example 225, N-{(2R,3S)-2-phenyl-1-[(6-{[5-(trifluoromethyl)pyridin-2-yl]oxy}quinolin-2-yl)carbonyl]pyrrolidin-3-yl}-4-(trifluoromethyl)benzenesulfonamide] | > 20000 nM
CC(=O)c1ccc(Oc2ccc3nc(C(=O)N4CCNCC4)ccc3c2)nc1 [Example 226, 1-(6-{[2-(piperazin-1-ylcarbonyl)quinolin-6-yl]oxy}pyridin-3-yl)ethanone] | > 20000 nM
O=C(c1ccc2cc(Oc3ccc(C(F)(F)F)cn3)ccc2n1)N1CCS(=O)(=O)CC1 [Example 227, (1,1-dioxidothiomorpholin-4-yl)(6-{[5-(trifluoromethyl)pyridin-2-yl]oxy}quinolin-2-yl)methanone] | 2940 nM
CC(C)(C)N1CCN(C(=O)c2ccc3cc(Oc4ccc(C(F)(F)F)cn4)ccc3n2)CC1 [Example 228, (4-tert-butylpiperazin-1-yl)(6-{[5-(trifluoromethyl)pyridin-2-yl]oxy}quinolin-2-yl)methanone] | 1150 nM
O=C(c1ccc2cc(Oc3ccc(C(F)(F)F)cn3)ccc2n1)N1CC2(CCNCC2)C1 [Example 232, 2,7-diazaspiro[3.5]non-2-yl(6-{[5-(trifluoromethyl)pyridin-2-yl]oxy}quinolin-2-yl)methanone] | 17400 nM
O=C(c1ccc2cc(Oc3ccc(C(F)(F)F)cn3)ccc2n1)N1CCCNC1 [Example 233, tetrahydropyrimidin-1(2H)-yl(6-{[5-(trifluoromethyl)pyridin-2-yl]oxy}quinolin-2-yl)methanone] | 586 nM
O=C(c1ccc2cc(Oc3ccc(C(F)(F)F)cn3)ccc2n1)N1CCNC[C@H]1CO [Example 234, [(2S)-2-(hydroxymethyl)piperazin-1-yl](6-{[5-(trifluoromethyl)pyridin-2-yl]oxy}quinolin-2-yl)methanone] | 2870 nM
CNS(=O)(=O)N1CCN(C(=O)c2ccc3cc(Oc4ccc(C(F)(F)F)cn4)ccc3n2)CC1 [Example 235, N-methyl-4-[(6-{[5-(trifluoromethyl)pyridin-2-yl]oxy}quinolin-2-yl)carbonyl]piperazine-1-sulfonamide] | 2360 nM
O=C(c1ccc2cc(Oc3ccc(C(F)(F)F)cn3)ccc2n1)N1CCCCCC1 [Example 238, azepan-1-yl(6-{[5-(trifluoromethyl)pyridin-2-yl]oxy}quinolin-2-yl)methanone] | 1540 nM
CNC(=O)[C@@H]1CCCN1C(=O)c1ccc2cc(Oc3ccc(C(F)(F)F)cn3)ccc2n1 [Example 239, N-methyl-1-[(6-{[5-(trifluoromethyl)pyridin-2-yl]oxy}quinolin-2-yl)carbonyl]-L-prolinamide] | > 20000 nM
O=C(c1ccc2cc(Oc3ccc(C(F)(F)F)cn3)ccc2n1)N1CCC2(CC1)OCCO2 [Example 240, 1,4-dioxa-8-azaspiro[4.5]dec-8-yl(6-{[5-(trifluoromethyl)pyridin-2-yl]oxy}quinolin-2-yl)methanone] | 2010 nM
O=C(c1ccc2cc(Oc3ccc(C(F)(F)F)cn3)ccc2n1)N1C[C@H]2C[C@@H]1CN2 [Example 241, (1R,4R)-2,5-diazabicyclo[2.2.1]hept-2-yl(6-{[5-(trifluoromethyl)pyridin-2-yl]oxy}quinolin-2-yl)methanone] | 1850 nM
O=C(c1ccc2cc(Oc3ncccn3)ccc2n1)N1CCNCC1 [Example 242, piperazin-1-yl[6-(pyrimidin-2-yloxy)quinolin-2-yl]methanone] | > 20000 nM

Same assay, conditions: read-out: FRET-Membrane Potential Nav1.7 IC50

Compound | IC50
O=C(c1ccc2cc(Oc3ccc(C(F)(F)F)cn3)ccc2n1)N1CCSCC1 [Example 221, thiomorpholin-4-yl(6-{[5-(trifluoromethyl)pyridin-2-yl]oxy}quinolin-2-yl)methanone] | 2790 nM
O=C(c1ccc2cc(Oc3ccc(C(F)(F)F)cn3)ccc2n1)N1CCCC1c1ccc(C(F)(F)F)cc1 (centres unmarked) [Example 224, {2-[4-(trifluoromethyl)phenyl]pyrrolidin-1-yl}(6-{[5-(trifluoromethyl)pyridin-2-yl]oxy}quinolin-2-yl)methanone] | > 20000 nM
O=C(N[C@@H]1CC[C@H]2CN(Cc3ccccc3)C[C@H]21)c1ccc2cc(Oc3ccc(C(F)(F)F)cn3)ccc2n1 [Example 230, N-[(3aS,4R,6aR)-2-benzyloctahydrocyclopenta[c]pyrrol-4-yl]-6-{[5-(trifluoromethyl)pyridin-2-yl]oxy}quinoline-2-carboxamide] | 259 nM
CC(C)N1CCN(C(=O)c2ccc3cc(Oc4ccc(C(F)(F)F)cn4)ccc3n2)CC1 [Example 231, (4-isopropylpiperazin-1-yl)(6-{[5-(trifluoromethyl)pyridin-2-yl]oxy}quinolin-2-yl)methanone] | 783 nM
CCNS(=O)(=O)N1CCN(C(=O)c2ccc3cc(Oc4ccc(C(F)(F)F)cn4)ccc3n2)CC1 [Example 236, N-ethyl-4-[(6-{[5-(trifluoromethyl)pyridin-2-yl]oxy}quinolin-2-yl)carbonyl]piperazine-1-sulfonamide] | 1010 nM
O=C(c1ccc2cc(Oc3ccc(C(F)(F)F)cn3)ccc2n1)N1CCC[C@H]1CO [Example 237, [(2S)-2-(hydroxymethyl)pyrrolidin-1-yl](6-{[5-(trifluoromethyl)pyridin-2-yl]oxy}quinolin-2-yl)methanone] | 3070 nM
